Laboratory results published in patent US12458650B2, “Urination disorder-improving agent” (ASKA Pharmaceutical Co., Ltd., priority 2019, dated 2025).

Tested on: urination disorder model associated with diabetes
Test: Test Example 4: urination disorder model associated with streptozocin-induced diabetes (cystometry, tissue weights, blood glucose, nomogram)
Format: in vivo, rat
Settings: for Prostate, Dorsolateral prostate weight / Prostate, Ventral prostate weight: average ± SD; for Dorsolateral prostate (atrophy rate) / Seminal vesicle (atrophy rate) / Ventral prostate (atrophy rate) / Whole prostate (atrophy rate): relative to solvent group; for bladder contraction force on urination by nomogram analysis: in comparison with solvent group, FIG. 17
Method: As described below, as a urination disorder model, a urination disorder model associated with diabetes was prepared to evaluate the urination disorder. This model has no benign prostatic hyperplasia and is a model of a urination disorder associated with neuropathy and smooth muscle contraction disorder.
The body weights of rats (male, Crl:CD(SD), 5-week-old; Charles River Laboratories Japan, Inc.) were measured. After the rats were fasted overnight, the blood was collected from the caudal vein to measure the fasting blood glucose. On the basis of the body weight and the tasting blood glucose level, the rats were grouped or divided into two (2) groups by randomized, multivariable block allocation. The day after the rats were grouped, a first group received intraperitoneal administration of a citrate buffer (pH 4.5) (10 mL/kg) having a concentration of 0.1 mmol/L, and a second group received intraperitoneal administration of streptozocin (STZ; Sigma-Aldrich) (50 mg/kg). Streptozocin (STZ) was administered in the form of a solution of streptozocin having a concentration of 5 mg/mL in the citrate buffer.
About one (1) week after streptozocin (STZ) was administered, the body weight and the fasting blood glucose were measured. In the streptozocin (STZ) administration group (the second group), individuals having a fasting blood glucose level of not less than 300 mg/dL were used as animals with induced diabetes. These animals with induced diabetes are a model having no abnormality of the prostate (having no benign prostatic hyperplasia). On the basis of the body weight and the fasting blood glucose level, the animals (models) with induced diabetes were grouped or divided into three (3) groups by randomized, multivariable block allocation.
To the three model groups with induced diabetes, a 0.5 v/v % Polysorbate 80 solution (0.5% P) (10 mL/kg), the compound A (3 mg/kg), and the compound A (10 mg/kg) were orally administered, respectively, wherein the administration schedule in all groups was a frequency of once a day, only on weekdays, over four (4) weeks. Moreover, to the above-mentioned first group, a 0.5 v/v % Polysorbate 80 solution (0.5% P) (10 mL/kg) was orally administered in the same administration schedule (normal group). On the last day of administration, a cannula was inserted into and secured to the dome of the bladder under isoflurane anesthesia, and cystometry (Cystometogram, CMG) was conducted in the order of under awake condition and under urethane anesthesia to measure the intravesical pressure, the voided volume, and the residual urine volume. After the completion of the measurement, the blood was collected under deep isoflurane anesthesia, and then the prostate (ventral prostate, dorsolateral prostate), the seminal vesicle, the bladder, and the kidney were extracted and were each weighed. Moreover, the blood glucose level in the collected blood was measured.
The test substances and the dosage in the test system (rats having the urination disorder associated with diabetes) are as follows. • Normal group: citrate buffer 10 mL/kg (intraperitoneal administration), 0.5% P 10 mL/kg (oral administration) (n=10) • Solvent group (control group): STZ 50 mg/kg (intraperitoneal administration), 0.5% P 10 mL/kg (oral administration) (n=10) • Group A3: STZ 50 mg/kg (intraperitoneal administration), Compound A 3 mg/kg (oral administration) (n=10) • Group A10: STZ 50 mg/kg (intraperitoneal administration), Compound A 10 mg/kg (oral administration) (n=9) Urination Parameter:
The resulting data of the intravesical pressure, the voided volume, and the residual urine volume were analyzed, and the bladder capacity (mL), the residual urine volume (mL), and the urination efficiency (%) were determined as urination parameters in each urination. With respect to these urination parameters, the average value of two measurements was calculated and was taken as a measured value of each individual. […]

[1] = Group A3: 3 mg/kg oral, 4 weeks
[2] = Group A10: 10 mg/kg oral, 4 weeks

CC(=O)O[C@]1(C(C)=O)C[C@@H](O)[C@H]2[C@@H]3C=C(Cl)C4=CC(=O)OC[C@]4(C)[C@H]3CC[C@@]21C [Compound A, 17α-acetoxy-6-chloro-15β-hydroxy-2-oxa-4,6-pregnadiene-3,20-dione]
Prostate, Dorsolateral prostate weight [1]: 35.3 ± 7.8 mg/100 g body weight
Prostate, Ventral prostate weight (Group A3: 3 mg/kg oral, 4 weeks, male STZ rats): 62.2 ± 11.4 mg/100 g body weight
Dorsolateral prostate (atrophy rate) [1]: (44.2%)
Seminal vesicle (atrophy rate) [1]: (41.8%)
Ventral prostate (atrophy rate) [1]: (43.0%)
Whole prostate (atrophy rate) [1]: (43.4%)
urination efficiency (Group A3: 3 mg/kg, cystometry under anesthesia, FIG. 16): improved
bladder contraction force on urination by nomogram analysis (Group A3: 3 mg/kg, cystometry under anesthesia): strong bladder contraction force
residual urine volume (Group A3: 3 mg/kg, cystometry under anesthesia, vs solvent group, FIG. 15): significantly decreased
bladder capacity (Group A3: 3 mg/kg, cystometry under awake condition, vs solvent group, FIG. 11): significantly reduced
residual urine volume (Group A3: 3 mg/kg, cystometry under awake condition, vs solvent group, FIG. 12): significantly reduced
urination efficiency (Group A3: 3 mg/kg, cystometry under awake condition, vs solvent group, FIG. 13): improved
therapeutic effect on diabetes (blood glucose level relative to the solvent group) (Group A3 and Group A10: 3 and 10 mg/kg oral, 4 weeks): no therapeutic effect on diabetes
Prostate, Dorsolateral prostate weight [2]: 28.8 ± 6.1 mg/100 g body weight
Prostate, Ventral prostate weight [2]: 53.1 ± 13.5 mg/100 g body weight
Dorsolateral prostate (atrophy rate) [2]: (54.5%)
Seminal vesicle (atrophy rate) [2]: (50.2%)
Ventral prostate (atrophy rate) [2]: (51.3%)
Whole prostate (atrophy rate) [2]: (52.5%)
urination efficiency (Group A10: 10 mg/kg, cystometry under anesthesia, FIG. 16): improved
bladder capacity (Group A10: 10 mg/kg, cystometry under anesthesia, P=0.0336, FIG. 14): reduced
bladder contraction force on urination by nomogram analysis (Group A10: 10 mg/kg, cystometry under anesthesia): strong bladder contraction force
residual urine volume (Group A10: 10 mg/kg, cystometry under anesthesia, vs solvent group, FIG. 15): significantly decreased
bladder capacity (Group A10: 10 mg/kg, cystometry under awake condition, vs solvent group, FIG. 11): significantly reduced
residual urine volume (Group A10: 10 mg/kg, cystometry under awake condition, vs solvent group, FIG. 12): significantly reduced
urination efficiency (Group A10: 10 mg/kg, cystometry under awake condition, vs solvent group, P=0.0359, FIG. 13): significantly improved
